{"source": "patent US9976141B2", "about": "“Compositions and methods for inhibiting gene expression of Hif2alpha” (Arrowhead Madison Inc., priority 2015, dated 2018)", "key": {"[1]": {"test_system": "human EPAS1 (Hif2α) cDNA in psiCHECK2 (Renilla luciferase/EPAS1 fusion mRNA) in Hep3B cells", "experiment": "Efficacy screen of Hif2α RNAi triggers in vitro, dual-luciferase reporter assay (1 nM and 0.1 nM)", "format": "cell-based", "details": "Hep3B cells co-transfected with EPAS1-psiCHECK2, Renilla luciferase normalized to firefly luciferase", "summary_of_the_method": "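Knockdown read by dual-luciferase assay: Renilla signal from the Renilla/EPAS1 fusion transcript divided by firefly luciferase expressed from the same plasmid. Triggers (modified canonical siRNAs, 1 nM or 0.1 nM) were co-transfected with 25 ng reporter plasmid per well into human hepatocellular carcinoma Hep3B cells.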"}, "[2]": {"test_system": "human (tumor) Hif2α (EPAS1) mRNA", "experiment": "Hif2α knockdown in orthotopic RCC tumor bearing mice, single injection of RNAi trigger-delivery polymer conjugate, RT-qPCR (Table 7)", "format": "in vivo", "details": "RNAi trigger 80 μg, polymer 126 400 μg; single tail vein injection; relative to isotonic glucose", "method": "A pCR3.1 expression vector expressing the reporter gene secreted alkaline phosphatase (SEAP) under the CMV promoter was prepared by directional cloning of the SEAP coding sequence PCR amplified from Clontech's pSEAP2-basic vector. Convenient restriction sites were added onto primers used to amplify the SEAP coding sequence for cloning into the pCR3.1 vector (Invitrogen). The resultant construct pCR3-SEAP was used to create a SEAP-expressing A498 ccRCC cell line. Briefly, pCR3-SEAP plasmid was transfected into A498 ccRCC cells by electroporation following manufacturer's recommendation. Stable transfectants were selected by G418 resistance. Selected A498-SEAP clones were evaluated for SEAP expression and integration stability.\nFemale athymic nude mice were anesthetized with ˜3% isoflourane and placed in the right lateral decubitus position. A small, 0.5-1 cm, longitudinally abdominal incision in the left flank was made. Using a moist cotton swab, the left kidney was lifted out of the peritoneum and gently stabilized. Just before injection, a 1.0 ml syringe was filled with the cell/Matrigel mixture and a 27 gauge needle catheter was attached to the syringe tip. The filled syringe was then attached to a syringe pump (Harvard Apparatus, model PHD2000) and primed to remove air. The tip of a 27-gauge needle catheter attached to a syringe was inserted just below the renal capsule near the caudal pole and the tip of the needle was then carefully advanced cranially along the capsule 3-4 mm. A 10 μl aliquot of 2:1 (vol:vol) cell/matrigel mixture containing about 300,000 cells was slowly injected into the kidney parenchyma using a syringe pump. The needle was left in the kidney for 15-20 seconds to ensure the injection was complete. The needle was then removed from the kidney and a cotton swab was placed over the injection site for 30 seconds to prevent leakage of the cells or bleeding. The kidney was then gently placed back into the abdomen and the abdominal wall was closed. Serum was collected every 7-14 days after implantation to monitor tumor growth using a commercial SEAP assay kit. For most studies, tumor mice were used 5-6 weeks after implantation, when tumor measurements were typically around 4-8 mm.\nRGD targeted HiF2α-RNAi trigger delivery conjugates. Delivery polymers were modified using RGD-PEG-HyNic, RGD-PEG-ACit-PNP, or RDG-PEG-FCitFP-TFP and PEG-dipeptide modifying agents. The indicated amount of polymer 126 or 100A polymer was modified with 8×PEG12-ACit-PABC-PNP/0.5× aldehyde-PEG24-FCit-PABC-PNP (with RGD mimic #1-PEG-HyNic using protocol #1) and the indicated amount of the indicated Hif2α RNAi trigger. Polymer 064 was modified according to protocol 7. Kidney RCC tumor-bearing mice were generated as described and treated with a single tail vein injection of isotonic glucose (G1) or the indicated Hif2α RNAi trigger-delivery polymer conjugate. Mice were euthanized at the indicated time after injection and total RNA was prepared from kidney tumor using Trizol reagent following manufacturer's recommendation. Relative HiF2α mRNA levels were determined by RT-qPCR as described below and compared to mice treated with delivery buffer (isotonic glucose) only.\nIn preparation for quantitative PCR, total RNA was isolated from tissue samples homogenized in TriReagent (Molecular Research Center, Cincinnati, Ohio) following the manufacturer's protocol. Approximately 500 ng RNA was reverse-transcribed using the High Capacity cDNA Reverse Transcription Kit (Life Technologies). For human (tumor) Hif2α (EPAS1) expression, pre-manufactured TaqMan gene expression assays for human Hif2α (Catalog #4331182) and CycA (PPIA) Catalog #: 4326316E) were used in biplex reactions in triplicate using TaqMan Gene Expression Master Mix (Life Technologies) or VeriQuest Probe Master Mix (Affymetrix). […]"}}, "note": "Strand notation (5' to 3'): a small letter for the sugar, then the base; units joined by * are phosphorothioate-linked, units joined directly phosphodiester-linked; [ ] holds rarer units or linkages, { } end groups; capitals alone tell only the bases. d = 2'-deoxy (DNA); m = 2'-O-methyl; f = 2'-fluoro", "data": [{"substance": "2404 (sense fCmUfGmUfCmAfAmCfGmUfAmAfCmGfAmUfUmUfAdT; antisense dTfAmAfAmUfCmGfUmUfAmCfGmUfUmGfAmCfAmGdT*dT; siRNA) [compound 2404]", "values": [{"measurement": "Relative Rluc-Hif2α", "setting": "[1]; 0.1 nM RNAi trigger", "value": "0.234 ± 0.045"}, {"measurement": "Relative Rluc-Hif2α", "setting": "[1]; 1 nM RNAi trigger", "value": "0.104 ± 0.019"}]}, {"substance": "2405 (sense fUmGfUmCfAmAfCmGfUmAfAmCfGmAfUmUfUmCfAdT; antisense dTfGmAfAmAfUmCfGmUfUmAfCmGfUmUfGmAfCmAdT*dT; siRNA) [compound 2405]", "values": [{"measurement": "Relative Rluc-Hif2α", "setting": "[1]; 0.1 nM RNAi trigger", "value": "0.261 ± 0.044"}, {"measurement": "Relative Rluc-Hif2α", "setting": "[1]; 1 nM RNAi trigger", "value": "0.138 ± 0.035"}]}, {"substance": "2406 (sense fUmCfAmAfCmGfUmAfAmCfGmAfUmUfUmCfAmUfAdT; antisense dTfAmUfGmAfAmAfUmCfGmUfUmAfCmGfUmUfGmAdT*dT; siRNA) [compound 2406]", "values": [{"measurement": "Relative Rluc-Hif2α", "setting": "[1]; 0.1 nM RNAi trigger", "value": "0.241 ± 0.022"}, {"measurement": "Relative Rluc-Hif2α", "setting": "[1]; 1 nM RNAi trigger", "value": "0.168 ± 0.044"}]}, {"substance": "2407 (sense fAmCfGmUfAmAfCmGfAmUfUmUfCmAfUmGfAmAfAdT; antisense dTfUmUfCmAfUmGfAmAfAmUfCmGfUmUfAmCfGmUdT*dT; siRNA) [compound 2407]", "values": [{"measurement": "Relative Rluc-Hif2α", "setting": "[1]; 0.1 nM RNAi trigger", "value": "0.222 ± 0.027"}, {"measurement": "Relative Rluc-Hif2α", "setting": "[1]; 1 nM RNAi trigger", "value": "0.124 ± 0.021"}]}, {"substance": "2408 (sense fUmAfUmUfAmUfAmUfUmGfUmCfGmAfAmUfUmCfAdT; antisense dTfGmAfAmUfUmCfGmAfCmAfAmUfAmUfAmAfUmAdT*dT; siRNA) [compound 2408]", "values": [{"measurement": "Relative Rluc-Hif2α", "setting": "[1]; 0.1 nM RNAi trigger", "value": "0.730 ± 0.045"}, {"measurement": "Relative Rluc-Hif2α", "setting": "[1]; 1 nM RNAi trigger", "value": "0.282 ± 0.004"}]}, {"substance": "2409 (sense fUmUfAmUfAmUfUmGfUmCfGmAfAmUfUmCfCmUfAdT; antisense dTfAmGfGmAfAmUfUmCfGmAfCmAfAmUfAmUfAmAdT*dT; siRNA) [compound 2409]", "values": [{"measurement": "Relative Rluc-Hif2α", "setting": "[1]; 0.1 nM RNAi trigger", "value": "0.301 ± 0.085"}, {"measurement": "Relative Rluc-Hif2α", "setting": "[1]; 1 nM RNAi trigger", "value": "0.104 ± 0.020"}]}, {"substance": "2410 (sense fUmAfUmUfGmUfCmGfAmAfUmUfCmCfUmAfCmUfAdT; antisense dTfAmGfUmAfGmGfAmAfUmUfCmGfAmCfAmAfUmAdT*dT; siRNA) [compound 2410]", "values": [{"measurement": "Relative Rluc-Hif2α", "setting": "[1]; 0.1 nM RNAi trigger", "value": "0.228 ± 0.033"}, {"measurement": "Relative Rluc-Hif2α", "setting": "[1]; 1 nM RNAi trigger", "value": "0.154 ± 0.022"}]}, {"substance": "2411 (sense fGmAfAmUfUmCfCmUfAmCfUmGfAmCfAmAfCmAfAdT; antisense dTfUmGfUmUfGmUfCmAfGmUfAmGfGmAfAmUfUmCdT*dT; siRNA) [compound 2411]", "values": [{"measurement": "Relative Rluc-Hif2α", "setting": "[1]; 0.1 nM RNAi trigger", "value": "0.796 ± 0.110"}, {"measurement": "Relative Rluc-Hif2α", "setting": "[1]; 1 nM RNAi trigger", "value": "0.410 ± 0.083"}]}, {"substance": "2412 (sense fUmCfCmUfAmCfUmGfAmCfAmAfCmAfUmUfAmUfAdT; antisense dTfAmUfAmAfUmGfUmUfGmUfCmAfGmUfAmGfGmAdT*dT; siRNA) [compound 2412]", "values": [{"measurement": "Relative Rluc-Hif2α", "setting": "[1]; 0.1 nM RNAi trigger", "value": "0.515 ± 0.037"}, {"measurement": "Relative Rluc-Hif2α", "setting": "[1]; 1 nM RNAi trigger", "value": "0.291 ± 0.014"}]}, {"substance": "2413 (sense fUmAfUmAfAmCfUmGfUmAfUmGfGmGfAmGfCmUfAdT; antisense dTfAmGfCmUfCmCfCmAfUmAfCmAfGmUfUmAfUmAdT*dT; siRNA) [compound 2413]", "values": [{"measurement": "Relative Rluc-Hif2α", "setting": "[1]; 0.1 nM RNAi trigger", "value": "0.675 ± 0.104"}, {"measurement": "Relative Rluc-Hif2α", "setting": "[1]; 1 nM RNAi trigger", "value": "0.317 ± 0.055"}]}, {"substance": "2414 (sense fUmAfAmCfUmGfUmAfUmGfGmGfAmGfCmUfUmAfAdT; antisense dTfUmAfAmGfCmUfCmCfCmAfUmAfCmAfGmUfUmAdT*dT; siRNA) [compound 2414]", "values": [{"measurement": "Relative Rluc-Hif2α", "setting": "[1]; 0.1 nM RNAi trigger", "value": "0.422 ± 0.070"}, {"measurement": "Relative Rluc-Hif2α", "setting": "[1]; 1 nM RNAi trigger", "value": "0.167 ± 0.038"}]}, {"substance": "2415 (sense fUmGfUmAfUmGfGmGfAmGfCmUfUmAfAmCfUmUfAdT; antisense dTfAmAfGmUfUmAfAmGfCmUfCmCfCmAfUmAfCmAdT*dT; siRNA) [compound 2415]", "values": [{"measurement": "Relative Rluc-Hif2α", "setting": "[1]; 0.1 nM RNAi trigger", "value": "0.180 ± 0.097"}, {"measurement": "Relative Rluc-Hif2α", "setting": "[1]; 1 nM RNAi trigger", "value": "0.119 ± 0.015"}]}, {"substance": "2416 (sense fUmUfGmAfCmAfCmUfGmGfUmAfUmCfUmUfAmUfAdT; antisense dTfAmUfAmAfGmAfUmAfCmCfAmGfUmGfUmCfAmAdT*dT; siRNA) [compound 2416]", "values": [{"measurement": "Relative Rluc-Hif2α", "setting": "[1]; 0.1 nM RNAi trigger", "value": "0.247 ± 0.031"}, {"measurement": "Relative Rluc-Hif2α", "setting": "[1]; 1 nM RNAi trigger", "value": "0.166 ± 0.031"}]}, {"substance": "2417 (sense fAmAfGmUfAmUfUmCfUmGfAmUfCmCfUmAfCmCfAdT; antisense dTfGmGfUmAfGmGfAmUfCmAfGmAfAmUfAmCfUmUdT*dT; siRNA) [compound 2417]", "values": [{"measurement": "Relative Rluc-Hif2α", "setting": "[1]; 0.1 nM RNAi trigger", "value": "0.295 ± 0.057"}, {"measurement": "Relative Rluc-Hif2α", "setting": "[1]; 1 nM RNAi trigger", "value": "0.253 ± 0.037"}]}, {"substance": "AD01020 (antisense TGUAAAACAAUUGUGUACUTT; sense AGUACACAAUUGUUUUACAT; Hif2alpha RNAi agent antisense strand; modified_base 2,4,8,10,12,14,16,18 /mod_base = “2′-deoxy-2′-fluoro corresponding nucleoside”; modified_base 3,5,7,9,11,13,15,17,19 /mod_base = “2′-O-methyl corresponding nucleoside”; modified_base 6 /mod_base = “2′-3′ seco corresponding nucleotide”; modified_base 21 /mod_base = “5′-phosphorothioate corresponding nucleotide”; Hif2alpha RNAi agent sense strand; modified_base 1,3,5,7,9,11,13,15,17,19 /mod_base = “2′-deoxy-2′-fluoro corresponding nucleoside”; modified_base 2,4,6,8,10,12,14,16,18 /mod_base = “2′-O-methyl corresponding nucleoside”; modified_b)", "values": [{"measurement": "Relative Expression day 4 (Hif2α mRNA in kidney tumor)", "setting": "[2]", "value": 0.94}]}, {"substance": "AD01021 (antisense TGUAAAACAAUUGUGUACUTT; sense AGUACACAAUUGUUUUACAT; Hif2alpha RNAi agent antisense strand; modified_base 2,4,6,8,10,12,14,16,18 /mod_base = “2′-deoxy-2′-fluoro corresponding nucleoside”; modified_base 3,5,9,11,13,15,17,19 /mod_base = “2′-O-methyl corresponding nucleoside”; modified_base 7 /mod_base = “2′-3′ seco corresponding nucleotide”; modified_base 21 /mod_base = “5′-phosphorothioate corresponding nucleotide”; Hif2alpha RNAi agent sense strand; modified_base 1,3,5,7,9,11,13,15,17,19 /mod_base = “2′-deoxy-2′-fluoro corresponding nucleoside”; modified_base 2,4,6,8,10,12,14,16,18 /mod_base = “2′-O-methyl corresponding nucleoside”; modified_b)", "values": [{"measurement": "Relative Expression day 4 (Hif2α mRNA in kidney tumor)", "setting": "[2]", "value": 0.90}]}, {"substance": "AD01022 (antisense TGUAAAACAAUUGUGUACUTT; sense AGUACACAAUUGUUUUACAT; Hif2alpha RNAi agent antisense strand; modified_base 2,4,6,8,10,12,14,16,18 /mod_base = “2′-deoxy-2′-fluoro corresponding nucleoside”; modified_base 3,5,7,9,11,13,15,17,19 /mod_base = “2′-O-methyl corresponding nucleoside”; modified_base 21 /mod_base = “5′-phosphorothioate corresponding nucleotide”; Hif2alpha RNAi agent sense strand; modified_base 1,3,5,7,9,11,13,15,17,19 /mod_base = “2′-deoxy-2′-fluoro corresponding nucleoside”; modified_base 2,4,6,8,10,12,14,16,18 /mod_base = “2′-O-methyl corresponding nucleoside”; modified_base 20 /mod_base = “3′-3′-linked nucleotide”; modified_base 1 /mo)", "values": [{"measurement": "Relative Expression day 4 (Hif2α mRNA in kidney tumor)", "setting": "[2]", "value": 0.53}]}]}
